Measured values published in patent publication US20240239801A1, “PYRIMIDO[5,4,D]PYRIMIDINE COMPOUNDS, COMPOSITIONS COMPRISING THEM AND USES THEREOF” (Université de Montréal, priority 2021, published 2024).
Read-outs that look alike come from different tables or passages of the source.

Tests used:
[1] = tested on: HCT116 pERK; experiment: Phospho-ERK inhibition, AlphaLISA SureFire Ultra p-ERK 1/2; type: cell-based, human; settings: for HCT116 (Ymin %): lowest value of the pERK IC50 curve
Procedure: (§1) All cancer cell lines (A375, A101D, A2058, RKO, HT29 SK-MEL 30, IPC298, HepG2, HCT-116, Lovo, SW620, SW480, NCI-H358, NCI-H2122, Calu-6, NCIH2087, NCIH1755, NCIH1666 and Mewo) were obtained from ATCC and cultured in RPMI-1640 medium (Gibco) supplemented with 5% heat inactivated fetal bovine serum (FBS, Wisent) at 37° C. under 5% CO2. Cells were maintained in T175 flasks (Greiner). They were passaged by removing the culture medium, washing once in 10 mL of room temperature Phosphate Buffered Saline (PBS; Wisent) and incubating at 37° C. with 2 mL of 0.05% Trypsin (Thermo-Fisher). Trypsin was then inactivated by adding complete growth medium and the cells were then replated in a T175 culture dish at the appropriate dilution. All cell lines were routinely tested for mycoplasma contamination. Tissue type and mutational status of each cell line can be found in Table B.
(§2) AlphaLISA® SureFire® Ultra™ p-ERK ½ (Thr202/Tyr204) analysis was conducted on cells plated in 100 μL of complete RPMI-1640 growth medium in 96-well flat-bottomed transparent dishes (Costar) at a density indicated in Table C. Cells were maintained overnight at 37° C. under 5% CO2 before treatment with compounds' dilution series for one hour. The cell density in cells/cm^2 corresponds to cell number divided by the area of one well of a 96-well plate ([…]).
(§3) In a dilution series 100 μL/well of test substance dilution prepared in complete RPMI-1640 growth media was added to the cells. The dilution series is selected so that ten concentrations cover a range from 30 μM or 10 μM to 0.33 nM. If necessary, the initial concentration of 10 μM is increased to 100 μM or lowered to 1 μM (as in the case of A375 and NCIH1666 cells, which are generally more sensitive to the compounds) and further dilution is carried out accordingly. The final concentration of DMSO in the assay is set at 0.5%.
(§4) After treatment, media was removed, and cells were lysed in 50 μL of 1× AlphaScreen Ultra Lysis Buffer (Perkin Elmer). The AlphaLISA® SureFire® Ultra™ p-ERK ½ (Thr202/Tyr2O4) (PerkinElmer) reactions were performed with 5 μL of cell lysate according to the manufacturer's specifications in 384-well proxyplates (Perkin Elmer) followed by overnight incubation of the reactions at room temperature in a humidified chamber. After completion of the reactions, the signals were recorded on an EnVision plate reader (Perkin Elmer) using built in AlphaLISA® settings.
(§5) The effect of each compound dilution on the pERK signal was expressed in % inhibition and calculated as follows. An internal 100% inhibition control (1 μM trametinib, cat. No. HY-10999; MedChem Express; CAS No. 871700-17-3) was included in each plate and used as a measure of pERK background. First, the value obtained for trametinib was subtracted from each data point. The average of DMSO (vehicle) controls (set as 0% inhibition) was established and used to calculate % inhibition:
(§6) The ability of each compound to inhibit pERK signal was expressed as an IC50 value obtained by plotting the inhibition values for each data point of a dilution series and fitting the obtained curves using a log(agonist) versus response−variable slope (four parameters) function using GraphPadPrism (V7.0).
(§7) When present, paradoxical pERK induction is inferred from the negative % inhibition values observed in the pERK IC50 curves of a compound.

[2] = tested on: SW480 pERK; experiment: as above; type: cell-based, human; settings: for IC50: read-out: SW480 PERK IC50; for SW480 (Ymin %): lowest value of the pERK IC50 curve
Procedure: as §1, §2, §3, §4, §5, §6, §7

[3] = molecular target: T1, BRAF (Homo sapiens, UniProt P15056); experiment: BRAF kinase activity assay (ADP-Glo); type: biochemical; settings: Table 2
T1 construct: GST; purchased Millipore Sigma B4062-10UG
Procedure: Compound preparation: solid samples of each substances in 1dram vials were suspended in DMSO (Fisher Scientific) at a stock concentration of 20 mM. Stocks were kept at −20° C. and protected from light. If solubility of the compound at 20 mM appeared to be an issue, the initial concentration of the DMSO stock was changed to 10 mM or 5 mM.
In vitro enzymatic reactions were used for evaluating compounds intrinsic activity against BRAF, CRAF and ARAF. For BRAF and CRAF, 0.375 nM of purified GST-tagged kinases (cat #B4062-10UG and cat #R1656-10UG respectively from Millipore Sigma) were incubated with 75 nM of kinase-dead MEK1 substrate (cat #40075; BPS Bioscience) in the presence of 10 μM of Ultrapure ATP (cat #V9102; Promega; part V915A) with and without the test compound in a buffer containing 50 mM HEPES pH 7.5, 10 mM MgCl2, 1 mM EDTA, 0.01% Brij-35 and 2 mM DTT. Separate reactions were performed with the MEK1 substrate and ATP as a blank control. ARAF, kinase reactions were rigorously the same with the exception that kinase concentration was raised to 3.75 nM (cat #1768-0000-1; Reaction Biology).
For compound treatment, 5 μL/well of test substance solution are placed in a 384-well proxyplate (Perkin Elmer) and mixed with 2× concentrated kinase reactions. The dilution series is selected so that nine concentrations cover a range from 100 nM to 0.01 nM. […] The final concentration of DMSO in the assay is set at 0.05%.
BRAF and CRAF kinase reactions were carried out for a total of 2 hours at 30° C. and then stopped by ½ dilution in ADP-Glo Reagent (cat #V9102; Promega; part V912C). Reactions were then incubated for 1 h at room temperature before addition of one volume of Kinase Detection Reagent (cat #V9102; Promega; part V917A). Plates were then equilibrated at room temperature for 30 minutes before detection of luminescence on a Synergy Neo2 plate reader (Biotek). The effect of each compound dilution on BRAF and CRAF kinase activity was expressed as % inhibition and calculated as follows. First, the internal 100% inhibition control (average of luminescence in kinase reactions comprising kinase dead MEK1 substrate alone) was subtracted from each data point. The average of DMSO (vehicle) controls (set as 0% inhibition) was established and used to calculate % inhibition:
IC50 values were obtained by plotting the kinase inhibition values and fitting the dose-activity curves using a log(agonist) versus response−variable slope (four parameters) function using either GraphPadPrism (V7.0) or Dotmatics Screening Ultra platform. Standards included in the ARAF kinase assay were Belvarafenib (MedChem Express cat #HY-109080; CAS #1446113-23-0), LXH254 (MedChem Express cat #HY-112089; CAS #1800398-38-2) and BGB283 (cat #HY-18957; CAS #1446090-79-4).

T1 sequence (P15056 whole entry): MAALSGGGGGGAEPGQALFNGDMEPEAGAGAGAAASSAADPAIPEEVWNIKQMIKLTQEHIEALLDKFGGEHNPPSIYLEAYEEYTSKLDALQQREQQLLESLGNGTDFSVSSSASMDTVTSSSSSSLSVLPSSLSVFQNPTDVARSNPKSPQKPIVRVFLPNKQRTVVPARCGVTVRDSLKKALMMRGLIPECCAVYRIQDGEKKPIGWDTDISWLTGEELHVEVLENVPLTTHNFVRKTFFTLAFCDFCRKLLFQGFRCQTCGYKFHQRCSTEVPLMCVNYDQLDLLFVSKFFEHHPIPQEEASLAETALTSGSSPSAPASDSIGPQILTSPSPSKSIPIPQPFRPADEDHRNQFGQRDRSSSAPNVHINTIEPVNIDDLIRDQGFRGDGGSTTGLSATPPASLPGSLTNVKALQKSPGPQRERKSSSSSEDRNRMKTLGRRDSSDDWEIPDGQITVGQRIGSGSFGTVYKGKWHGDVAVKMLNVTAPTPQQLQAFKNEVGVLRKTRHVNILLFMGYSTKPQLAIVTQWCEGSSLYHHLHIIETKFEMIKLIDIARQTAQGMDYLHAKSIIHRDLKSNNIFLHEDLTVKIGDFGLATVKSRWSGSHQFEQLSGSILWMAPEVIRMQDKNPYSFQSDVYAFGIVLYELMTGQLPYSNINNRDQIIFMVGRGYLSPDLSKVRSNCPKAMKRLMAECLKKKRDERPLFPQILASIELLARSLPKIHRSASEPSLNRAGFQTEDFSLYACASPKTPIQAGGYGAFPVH

SMILES | IC50 ([1]; Table 3, 1 h treatment) [µM] | HCT116 (Ymin %) ([1]; Table 3) [%] | IC50 ([2]; Table 3, 1 h treatment) [µM] | SW480 (Ymin %) ([2]; Table 3) [%] | also measured
O=S(=O)(Nc1ccc(F)c(Nc2ncnc3cnc(N4CC[C@H](F)C4)nc23)c1F)c1ccc2c(c1)CCO2 [Example 66] | 10 to 30 | 10 | 1 to 10 | 0 | 
CO[C@@H]1CCN(S(=O)(=O)Nc2ccc(F)c(Nc3ncnc4cnc(N5Cc6ccccc6C5)nc34)c2F)C1 [Example 67] | 1 to 10 | 6 | 1 to 10 | 18 | 
CO[C@@H]1CCN(S(=O)(=O)Nc2ccc(F)c(Nc3ncnc4cnc(-n5ccc6ccccc65)nc34)c2F)C1 [Example 68] | 1 to 10 | 17 | 1 to 10 | 0 | 
COCC1CCN(S(=O)(=O)Nc2ccc(F)c(Nc3ncnc4cnc(-n5cnc6ccccc65)nc34)c2F)C1 (stereo not drawn) [Example 70] | 1 to 10 | 0 | 1 to 10 | 1 | 
CO[C@@H]1CCN(S(=O)(=O)Nc2ccc(F)c(Nc3ncnc4cnc(-n5ccc6cccnc65)nc34)c2F)C1 [Example 71] | 1 to 10 | 8 | 1 to 10 | −4 | 
CO[C@@H]1CCN(S(=O)(=O)Nc2ccc(F)c(Nc3ncnc4cnc(-n5nnc6ccccc65)nc34)c2F)C1 [Example 72] | 1 to 10 | 20 | 1 to 10 | 1 | 
CC1CCN(S(=O)(=O)Nc2ccc(F)c(Nc3ncnc4cnc(-n5cnc6ccccc65)nc34)c2F)C1 (stereo not drawn) [Example 73] | 1 to 10 | −2 | 1 to 10 | 7 | 
O=S(=O)(Nc1ccc(F)c(Nc2ncnc3cnc(-n4cnc5ccccc54)nc23)c1F)N1CC2CC2C1 (stereo not drawn) [Example 74] | 1 to 10 | −3 | 1 to 10 | −7 | 
O=S(=O)(Nc1ccc(F)c(Nc2ncnc3cnc(-n4cnc5ccccc54)nc23)c1F)N1CCC(CCl)C1 (stereo not drawn) [Example 75] | 1 to 10 | −10 | 1 to 10 | −6 | 
CCC1CCN(S(=O)(=O)Nc2ccc(F)c(Nc3ncnc4cnc(-n5cnc6ccccc65)nc34)c2F)C1 (stereo not drawn) [Example 76] | 1 to 10 | −1 | 1 to 10 | −9 | 
O=S(=O)(Nc1ccc(F)c(Nc2ncnc3cnc(-n4cnc5ccccc54)nc23)c1F)N1CCCC1 [Example 77] | 1 to 10 | −4 | 1 to 10 | −4 | 
O=S(=O)(Nc1ccc(F)c(Nc2ncnc3cnc(-n4cnc5ccccc54)nc23)c1F)N1CCC(OC(F)F)C1 (stereo not drawn) [Example 78] | 1 to 10 | 6 | 0.5 to 1 | 10 | 
COc1ccc(S(=O)(=O)Nc2ccc(F)c(Nc3ncnc4cnc(-n5cnc6c(N)cccc65)nc34)c2F)c(F)c1 [Example 79] | 0.5 to 1 | −6 | < 0.5 | −2 | 
COc1ccc(S(=O)(=O)Nc2ccc(F)c(Nc3ncnc4c(N)nc(-n5cnc(C)c5C)nc34)c2F)cc1 [Example 85] |  |  |  |  | IC50 ([1]; Table 4, 1 h treatment): 10 to 30 µM; HCT116 (Ymin %) ([1]; Table 4): 8%; IC50 ([2]; Table 4, 1 h treatment): 1 to 10 µM; SW480 (Ymin %) ([2]; Table 4): 4%
COc1ccc(S(=O)(=O)Nc2ccc(F)c(Nc3ncnc4c(N)nc(-n5cnc(C)c5C)nc34)c2F)c(C)c1 [Example 86] |  |  |  |  | IC50 ([1]; Table 4, 1 h treatment): 1 to 10 µM; HCT116 (Ymin %) ([1]; Table 4): 8%; IC50 ([2]; Table 4, 1 h treatment): 1 to 10 µM; SW480 (Ymin %) ([2]; Table 4): 3%
COc1ccc(S(=O)(=O)Nc2ccc(F)c(Nc3ncnc4cnc(SC)nc34)c2Cl)cc1 [Example 89] |  |  |  |  | IC50 ([1]; HCT116 cells, pERK): 10 to 30 µM; HCT116 pERK % Ymin (lowest value of the IC50 curve) ([1]; HCT116 cells, value in brackets, Ymin above −20% = minimal or no paradoxical induction): −5%; IC50 ([2]; SW480 cells, pERK): 10 to 30 µM; SW480 pERK % Ymin (lowest value of the IC50 curve) ([2]; SW480 cells, value in brackets, Ymin above −20% = minimal or no paradoxical induction): 3.5%
CSc1ncc2ncnc(Nc3c(F)ccc(NS(=O)(=O)c4cccc(F)c4C)c3F)c2n1 [Example 90] |  |  |  |  | IC50 ([1]; Homo sapiens, HCT-116, Table 2, 1 h treatment): 1 to 10 µM; IC50 [3]: 0.001 to 0.01 µM
COc1ccc(S(=O)(=O)Nc2ccc(F)c(Nc3ncnc4cnc(SC)nc34)c2F)c(C)c1Cl [Example 92] |  |  |  |  | IC50 ([1]; Table 2, 1 h treatment): 1 to 10 µM; HCT116 (Ymin %) ([1]; Table 2): −12%; IC50 [3]: 0.001 to 0.01 µM
